Results from patent US12479856B2, “Pharmaceutical compounds for the treatment of complement mediated disorders” (Achillion Pharmaceuticals, Inc., priority 2019, dated 2025).

molecular target: T1, Human complement C1s enzyme (Homo sapiens, UniProt P09871); experiment: Human C1s Enzyme Assay; format: biochemical; settings: Table 3; C1s purified from human serum, 1.16 nM; substrate Z-L-Lys-SBzl; read-out: C1s Protease Activity
T1 construct: purified from human serum, Complement Technology, Inc; purchased Complement Technology, Inc; host or cells: human serum (plasma-derived natural protein)
T1 sequence (P09871 438-688 limits assumed): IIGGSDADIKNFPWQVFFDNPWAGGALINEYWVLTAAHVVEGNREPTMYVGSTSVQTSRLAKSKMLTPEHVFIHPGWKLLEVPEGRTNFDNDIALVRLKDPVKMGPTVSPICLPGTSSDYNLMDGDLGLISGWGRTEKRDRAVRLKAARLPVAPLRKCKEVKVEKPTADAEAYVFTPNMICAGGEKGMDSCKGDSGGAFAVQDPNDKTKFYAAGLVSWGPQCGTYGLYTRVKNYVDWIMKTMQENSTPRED
T1 sequence (P09871 16-437 partner limits assumed): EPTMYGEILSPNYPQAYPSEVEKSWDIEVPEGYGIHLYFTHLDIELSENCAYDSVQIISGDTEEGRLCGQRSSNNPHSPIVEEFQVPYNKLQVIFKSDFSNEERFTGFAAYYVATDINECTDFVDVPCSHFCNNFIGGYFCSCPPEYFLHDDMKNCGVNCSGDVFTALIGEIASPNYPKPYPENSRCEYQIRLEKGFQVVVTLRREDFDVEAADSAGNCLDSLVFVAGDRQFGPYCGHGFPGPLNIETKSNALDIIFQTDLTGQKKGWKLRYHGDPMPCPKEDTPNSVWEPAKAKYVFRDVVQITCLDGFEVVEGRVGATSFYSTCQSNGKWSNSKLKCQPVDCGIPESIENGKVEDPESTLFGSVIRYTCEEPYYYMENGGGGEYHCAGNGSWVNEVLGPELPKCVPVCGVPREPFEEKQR
Method in brief: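 Serum-purified human C1s (1.16 nM) preincubated 5 min at RT with compound in 50 mM Tris, 1 M NaCl, pH 7.5. Z-L-Lys-SBzl and DTNB (100 μM each) then added; A405 followed every 30 s for 30 min. IC50 from nonlinear regression of reaction rates versus compound concentration.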

IC50, < 100 nM:
C[C@@]12C[C@@H]1N(C(=O)CNC(=O)c1ccc(Oc3ccc(S(F)(F)(F)(F)F)cc3)cc1)[C@H](C(=O)NCc1cc(C(=N)N)cs1)C2 [Compound 95, (1S,3S,5S)-N-((4-carbamimidoylthiophen-2-yl)methyl)-5-methyl-2-((4-(4-(pentafluoro-16-sulfaneyl)phenoxy)benzoyl)glycyl)-2-azabicyclo[3.1.0]hexane-3-carboxamide]
N=C(N)c1csc(CNC(=O)[C@@H]2C[C@@H](c3ccccc3)CN2C(=O)CNC(=O)c2ccc(Oc3ccccc3)cc2)c1 [Compound 97, (2S,4S)-N-((4-carbamimidoylthiophen-2-yl)methyl)-1-((4-phenoxybenzoyl)glycyl)-4-phenylpyrrolidine-2-carboxamide]
N=C(N)c1csc(CNC(=O)[C@@H]2C[C@@H](C(F)(F)F)CN2C(=O)CNC(=O)c2ccc(Oc3ccccc3)cc2)c1 [Compound 98, (2S,4R)-N-((4-carbamimidoylthiophen-2-yl)methyl)-1-((4-phenoxybenzoyl)glycyl)-4-(trifluoromethyl)pyrrolidine-2-carboxamide]
N=C(N)c1csc(CNC(=O)[C@@H]2C[C@H](C(F)(F)F)CN2C(=O)CNC(=O)c2ccc(Oc3ccccc3)cc2)c1 [Compound 100, (2S,4S)-N-((4-carbamimidoylthiophen-2-yl)methyl)-1-((4-phenoxybenzoyl)glycyl)-4-(trifluoromethyl)pyrrolidine-2-carboxamide]
N=C(N)c1csc(CNC(=O)[C@@H]2C[C@@H](OC(F)F)CN2C(=O)CNC(=O)c2ccc(Oc3ccccc3)cc2)c1 [Compound 101, (2S,4R)-N-((4-carbamimidoylthiophen-2-yl)methyl)-4-(difluoromethoxy)-1-((4-phenoxybenzoyl)glycyl)pyrrolidine-2-carboxamide]
N=C(N)c1csc(CNC(=O)[C@@H]2C[C@@H]3CCCC[C@@H]3N2C(=O)CNC(=O)c2ccc(Oc3ccccc3)cc2)c1 [Compound 102, (2S,3aS,7aS)-N-((4-carbamimidoylthiophen-2-yl)methyl)-1-((4-phenoxybenzoyl)glycyl)octahydro-1H-indole-2-carboxamide]
N=C(N)c1csc(CNC(=O)[C@@H]2C[C@H](Oc3ccc(F)cc3)CN2C(=O)CNC(=O)c2ccc(Oc3ccccc3)cc2)c1 [Compound 103, (2S,4S)-N-((4-carbamimidoylthiophen-2-yl)methyl)-4-(4-fluorophenoxy)-1-((4-phenoxybenzoyl)glycyl)pyrrolidine-2-carboxamide]
Cc1cccc(O[C@H]2C[C@@H](C(=O)NCc3cc(C(=N)N)cs3)N(C(=O)CNC(=O)c3ccc(Oc4ccccc4)cc3)C2)c1 [Compound 104, (2S,4S)-N-((4-carbamimidoylthiophen-2-yl)methyl)-1-((4-phenoxybenzoyl)glycyl)-4-(m-tolyloxy)pyrrolidine-2-carboxamide]
Cc1ccccc1O[C@H]1C[C@@H](C(=O)NCc2cc(C(=N)N)cs2)N(C(=O)CNC(=O)c2ccc(Oc3ccccc3)cc2)C1 [Compound 105, (2S,4S)-N-((4-carbamimidoylthiophen-2-yl)methyl)-1-((4-phenoxybenzoyl)glycyl)-4-(o-tolyloxy)pyrrolidine-2-carboxamide]
N=C(N)c1csc(CNC(=O)[C@@H]2C[C@](F)(CF)CN2C(=O)CNC(=O)c2ccc(Oc3ccccc3)cc2)c1 [Compound 106, (2S,4R)-N-((4-carbamimidoylthiophen-2-yl)methyl)-4-fluoro-4-(fluoromethyl)-1-((4-phenoxybenzoyl)glycyl)pyrrolidine-2-carboxamide]
C[C@@]12C[C@@H]1N(C(=O)CNC(=O)c1ccc(Oc3ccccc3)cc1)[C@H](C(=O)NCc1ccc(C(=N)N)s1)C2 [Compound 107, (1S,3S,5S)-N-((5-carbamimidoylthiophen-2-yl)methyl)-5-methyl-2-((4-phenoxybenzoyl)glycyl)-2-azabicyclo[3.1.0]hexane-3-carboxamide]
N=C(N)c1csc(CNC(=O)[C@@H]2C[C@H](Oc3cccc(F)c3)CN2C(=O)CNC(=O)c2ccc(Oc3ccccc3)cc2)c1 [Compound 108, (2S,4S)-N-((4-carbamimidoylthiophen-2-yl)methyl)-4-(3-fluorophenoxy)-1-((4-phenoxybenzoyl)glycyl)pyrrolidine-2-carboxamide]
